Source: the supplement of paper PMC10307832

What was measured:
Experiment in all cases: relative viability (nuclei count vs DMSO), 5 days (fraction); higher = more cells survive
COR-L 105 = system: COR-L 105
How it was run: (§1)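 Lung cancer cell lines in 1536-well plates were dosed by pin tool the day after seeding, either with one drug alone or with a fixed anchor-drug dose plus five library-drug doses (not always all listed) in √10 steps. After 5 days, cells were fixed and their nuclei stained in one step (final 0.05% Triton X-100, 1% formaldehyde, 1 ug/ml Hoechst), then counted on 4× images. Relative viability is the nuclei count in treated wells divided by that in vehicle wells. Values are medians of duplicate plates.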

NCI-H2228 = system: NCI-H2228
How it was run: as §1

NCI-H1755 = system: NCI-H1755
How it was run: as §1

NCI-H522 = system: NCI-H522
How it was run: as §1

NCI-H2009 = system: NCI-H2009
How it was run: as §1

NCI-H1993 = system: NCI-H1993
How it was run: as §1

HOP-62 = system: HOP-62
How it was run: as §1

NCI-H838 = system: NCI-H838
How it was run: as §1

UMC-11 = system: UMC-11
How it was run: as §1

HARA = system: HARA
How it was run: as §1

NCI-H1793 = system: NCI-H1793
How it was run: as §1

NCI-H647 = system: NCI-H647
How it was run: as §1

NCI-H358 = system: NCI-H358
How it was run: as §1

COR-L23 = system: COR-L23
How it was run: as §1

HCC-15 = system: HCC-15
How it was run: as §1

NCI-H1395 = system: NCI-H1395
How it was run: as §1

SK-MES-1 = system: SK-MES-1
How it was run: as §1

NCI-H2347 = system: NCI-H2347
How it was run: as §1

NCI-H1355 = system: NCI-H1355
How it was run: as §1

NCI-H1734 = system: NCI-H1734
How it was run: as §1

NCI-H2170 = system: NCI-H2170
How it was run: as §1

Compound `CCN(CC)CCCCNc1ncc2cc(-c3cc(OC)cc(OC)c3)c(NC(=O)NC(C)(C)C)nc2n1` + Cc1cc(Nc2cc(N3CCN(C)CC3)nc(Sc3ccc(NC(=O)C4CC4)cc3)n2)n[nH]1 [Tozasertib] (partner 0.1 µM) has a relative viability (COR-L 105; first compound 0.01 µM) of 0.366, a relative viability (COR-L 105; first compound 0.03162 µM) of 0.345 and a relative viability (COR-L 105; first compound 0.1 µM) of 0.374. The relative viability (COR-L 105; first compound 0.3162 µM) was 0.354, the relative viability (COR-L 105; first compound 1 µM) was 0.354 and the relative viability (NCI-H2228; first compound 0.01 µM) was 0.183. The relative viability (NCI-H2228; first compound 0.03162 µM) was 0.231, the relative viability (NCI-H2228; first compound 0.1 µM) was 0.319 and the relative viability (NCI-H2228; first compound 0.3162 µM) was 0.258. It also gave a relative viability (NCI-H2228; first compound 1 µM) of 0.197, a relative viability (NCI-H1755; first compound 0.01 µM) of 0.624 and a relative viability (NCI-H1755; first compound 0.03162 µM) of 0.61. The relative viability (NCI-H1755; first compound 0.1 µM) was 0.607, the relative viability (NCI-H1755; first compound 0.3162 µM) was 0.622 and the relative viability (NCI-H1755; first compound 1 µM) was 0.535. For the same compound, the relative viability (NCI-H522; first compound 0.01 µM) was 0.529, the relative viability (NCI-H522; first compound 0.03162 µM) was 0.604 and the relative viability (NCI-H522; first compound 0.1 µM) was 0.575. For the same compound, the relative viability (NCI-H522; first compound 0.3162 µM) was 0.49, the relative viability (NCI-H522; first compound 1 µM) was 0.534 and the relative viability (NCI-H2009; first compound 0.01 µM) was 0.816. It also gave a relative viability (NCI-H2009; first compound 0.03162 µM) of 0.72, a relative viability (NCI-H2009; first compound 0.1 µM) of 0.912 and a relative viability (NCI-H2009; first compound 0.3162 µM) of 0.821. The relative viability (NCI-H2009; first compound 1 µM) was 0.573, the relative viability (NCI-H1993; first compound 0.01 µM) was 0.621 and the relative viability (NCI-H1993; first compound 0.03162 µM) was 0.608. For the same compound, the relative viability (NCI-H1993; first compound 0.1 µM) was 0.604, the relative viability (NCI-H1993; first compound 0.3162 µM) was 0.64 and the relative viability (NCI-H1993; first compound 1 µM) was 0.566. It also gave a relative viability (HOP-62; first compound 0.01 µM) of 0.473, a relative viability (HOP-62; first compound 0.03162 µM) of 0.377 and a relative viability (HOP-62; first compound 0.1 µM) of 0.386. It also gave a relative viability (HOP-62; first compound 0.3162 µM) of 0.408, a relative viability (HOP-62; first compound 1 µM) of 0.319 and a relative viability (NCI-H838; first compound 0.01 µM) of 0.315. The relative viability (NCI-H838; first compound 0.03162 µM) was 0.282, the relative viability (NCI-H838; first compound 0.1 µM) was 0.259 and the relative viability (NCI-H838; first compound 0.3162 µM) was 0.271. It also gave a relative viability (NCI-H838; first compound 1 µM) of 0.205, a relative viability (UMC-11; first compound 0.01 µM) of 0.214 and a relative viability (UMC-11; first compound 0.03162 µM) of 0.203. For the same compound, the relative viability (UMC-11; first compound 0.1 µM) was 0.204, the relative viability (UMC-11; first compound 0.3162 µM) was 0.195 and the relative viability (UMC-11; first compound 1 µM) was 0.196. For the same compound, the relative viability (HARA; first compound 0.01 µM) was 0.104, the relative viability (HARA; first compound 0.03162 µM) was 0.122 and the relative viability (HARA; first compound 0.1 µM) was 0.0948. The relative viability (HARA; first compound 0.3162 µM) was 0.0933, the relative viability (HARA; first compound 1 µM) was 0.0989 and the relative viability (NCI-H1793; first compound 0.01 µM) was 0.311. For the same compound, the relative viability (NCI-H1793; first compound 0.03162 µM) was 0.367, the relative viability (NCI-H1793; first compound 0.1 µM) was 0.362 and the relative viability (NCI-H1793; first compound 0.3162 µM) was 0.348. The relative viability (NCI-H1793; first compound 1 µM) was 0.241, the relative viability (NCI-H647; first compound 0.01 µM) was 0.265 and the relative viability (NCI-H647; first compound 0.03162 µM) was 0.289. For the same compound, the relative viability (NCI-H647; first compound 0.1 µM) was 0.113, the relative viability (NCI-H647; first compound 0.3162 µM) was 0.332 and the relative viability (NCI-H647; first compound 1 µM) was 0.223. For the same compound, the relative viability (NCI-H358; first compound 0.01 µM) was 0.108, the relative viability (NCI-H358; first compound 0.03162 µM) was 0.0902 and the relative viability (NCI-H358; first compound 0.1 µM) was 0.115. For the same compound, the relative viability (NCI-H358; first compound 0.3162 µM) was 0.104, the relative viability (NCI-H358; first compound 1 µM) was 0.101 and the relative viability (COR-L23; first compound 0.01 µM) was 0.226. The relative viability (COR-L23; first compound 0.03162 µM) was 0.205, the relative viability (COR-L23; first compound 0.1 µM) was 0.157 and the relative viability (COR-L23; first compound 0.3162 µM) was 0.206. For the same compound, the relative viability (COR-L23; first compound 1 µM) was 0.171, the relative viability (HCC-15; first compound 0.01 µM) was 0.45 and the relative viability (HCC-15; first compound 0.03162 µM) was 0.311. It also gave a relative viability (HCC-15; first compound 0.1 µM) of 0.428, a relative viability (HCC-15; first compound 0.3162 µM) of 0.342 and a relative viability (HCC-15; first compound 1 µM) of 0.247. It also gave a relative viability (NCI-H1395; first compound 0.01 µM) of 0.77, a relative viability (NCI-H1395; first compound 0.03162 µM) of 0.754 and a relative viability (NCI-H1395; first compound 0.1 µM) of 0.785. The relative viability (NCI-H1395; first compound 0.3162 µM) was 0.695, the relative viability (NCI-H1395; first compound 1 µM) was 0.547 and the relative viability (SK-MES-1; first compound 0.01 µM) was 1.01. The relative viability (SK-MES-1; first compound 0.03162 µM) was 1.02, the relative viability (SK-MES-1; first compound 0.1 µM) was 1.1 and the relative viability (SK-MES-1; first compound 0.3162 µM) was 1.03. It also gave a relative viability (SK-MES-1; first compound 1 µM) of 0.879, a relative viability (NCI-H2347; first compound 0.01 µM) of 0.509 and a relative viability (NCI-H2347; first compound 0.03162 µM) of 0.508. It also gave a relative viability (NCI-H2347; first compound 0.1 µM) of 0.718, a relative viability (NCI-H2347; first compound 0.3162 µM) of 0.607 and a relative viability (NCI-H2347; first compound 1 µM) of 0.551. The relative viability (NCI-H1355; first compound 0.01 µM) was 0.547, the relative viability (NCI-H1355; first compound 0.03162 µM) was 0.559 and the relative viability (NCI-H1355; first compound 0.1 µM) was 0.52. It also gave a relative viability (NCI-H1355; first compound 0.3162 µM) of 0.531, a relative viability (NCI-H1355; first compound 1 µM) of 0.411 and a relative viability (NCI-H1734; first compound 0.01 µM) of 0.136. It also gave a relative viability (NCI-H1734; first compound 0.03162 µM) of 0.257, a relative viability (NCI-H1734; first compound 0.1 µM) of 0.3 and a relative viability (NCI-H1734; first compound 0.3162 µM) of 0.244. It also gave a relative viability (NCI-H1734; first compound 1 µM) of 0.243, a relative viability (NCI-H2170; first compound 0.01 µM) of 0.619 and a relative viability (NCI-H2170; first compound 0.03162 µM) of 0.77. The relative viability (NCI-H2170; first compound 0.1 µM) was 0.747, the relative viability (NCI-H2170; first compound 0.3162 µM) was 0.755 and the relative viability (NCI-H2170; first compound 1 µM) was 0.65.
